Each block holds one compound with its values, some of them ahead of it.
Experiment: solvent given as SMILES

absorption maximum (in CO): 425 nm
SMILES: c1ccc(N(c2ccccc2)c2ccc(-c3ncc(-c4ccc(-c5ccc(-c6cnc(-c7ccc(N(c8ccccc8)c8ccccc8)cc7)s6)s5)s4)s3)cc2)cc1

absorption maximum (in CC#N): 358 nm | absorption maximum (in CCCCCC): 352 nm
SMILES: C(=C\c1cccnc1)/c1ccc(Nc2ccccc2)cc1

absorption maximum (in ClCCl): 363 nm
SMILES: O=S1(=O)c2ccc(-c3ccc(N(c4ccccc4)c4ccccc4)cc3)cc2C2(c3ccccc3-c3ccccc32)c2cc(-c3ccc(N(c4ccccc4)c4ccccc4)cc3)ccc21

SMILES: Cc1nc(-c2ccc(N3c4ccccc4C(c4ccccc4)(c4ccccc4)c4ccccc43)cc2)cc(-c2ccc(N3c4ccccc4C(c4ccccc4)(c4ccccc4)c4ccccc43)cc2)n1
absorption maximum (in Cc1ccccc1): 370 nm

absorption maximum (in ClC(Cl)Cl): 515 nm
SMILES: CCCCCCCCn1c(=O)c2cc3cc4cc5c(=O)n(CCCCCCCC)c(=O)c5cc4c(C#Cc4ccc(N(c5ccccc5)c5ccccc5)cc4)c3cc2c1=O

absorption maximum (in ClC(Cl)Cl): 424 nm
SMILES: CCCN1c2ccccc2Sc2cc(/C=C\c3cc(=O)oc4cc(C)ccc34)ccc21

absorption maximum (in ClC(Cl)Cl): 386 nm
SMILES: CCCCC1(c2ccccc2)Nc2ccccc2N=C1c1ccccc1 (stereo unspecified)

absorption maximum (in ClCCl): 392 nm
SMILES: CCCCCCNC(=O)c1sc(-c2ccc(-c3cc(-c4ccc(C(C)(C)C)cc4)c(C(=O)NCCCCCC)s3)s2)cc1-c1ccc(C(C)(C)C)cc1

SMILES: N#Cc1cc(C#N)c(-n2c3ccccc3c3ccccc32)cc1-n1c2ccccc2c2ccccc21
absorption maximum (in Cc1ccccc1): 374 nm

SMILES: O=S1(=O)C2=C(c3ccc(-c4ccc(N(c5ccccc5)c5ccccc5)cc4)cc31)C1(C3=C(c4ccccc41)S(=O)(=O)c1cc(-c4ccc(N(c5ccccc5)c5ccccc5)cc4)ccc13)c1ccccc12
absorption maximum (in C1CCOC1): 431 nm | absorption maximum (in CC#N): 430 nm | absorption maximum (in CCCCCC): 424 nm | absorption maximum (in Cc1ccccc1): 438 nm | absorption maximum (in ClCCl): 438 nm

absorption maximum (in CO): 637 nm | absorption maximum (in CS(C)=O): 645 nm | absorption maximum (in O): 633 nm
SMILES: CCCN1/C(=C/C=C/C=C/C2=[N+](CCC)c3ccccc3C2(C)C)C(C)(C)c2ccccc21

absorption maximum (in CS(C)=O): 399 nm | absorption maximum (in O): 396 nm
SMILES: O=c1c2cc(S(=O)(=O)O)ccc2[nH]c2ccc(S(=O)(=O)O)cc12

SMILES: Cc1ccc2ccccc2c1
absorption maximum (in C1CCCCC1): 303.77 nm

absorption maximum (in CCO): 557 nm
SMILES: Oc1cccc(O)c1-c1c2ccc(=[N+]3CCCCC3)cc-2oc2cc(N3CCCCC3)ccc12

SMILES: CC(C)(C)c1ccc2c(c1)c1cc(C(C)(C)C)cc3c1n2-c1cc(-c2cccc(F)c2)cc2c1B3c1cc(C(C)(C)C)cc3c4cc(C(C)(C)C)ccc4n-2c13
absorption maximum (in Cc1ccccc1): 467.1 nm

absorption maximum (in CC#N): 332 nm
SMILES: CCCC(=O)c1c(OCOC)c(OCOC)c(C(=O)CCC)c2c1OCO2

absorption maximum (in ClCCl): 434 nm
SMILES: COc1ccc(N(c2ccc(OC)cc2)c2cc(N(c3ccc(OC)cc3)c3ccc(OC)cc3)c3ccc4cc(C(C)(C)C)cc5ccc2c3c54)cc1

SMILES: Cc1c2ccncc2c(C)c2c1[nH]c1ccccc12
absorption maximum (in C1CCCCC1): 290 nm | absorption maximum (in C1CCOC1): 293.3 nm | absorption maximum (in C1COCCO1): 292.5 nm | absorption maximum (in CC#N): 291.5 nm | absorption maximum (in CC(C)(C)O): 294.5 nm | absorption maximum (in CC(C)O): 294.5 nm | absorption maximum (in CCC(C)(C)O): 294.5 nm | absorption maximum (in CCCCCC): 289.5 nm | absorption maximum (in CCCCO): 295 nm | absorption maximum (in CCO): 294 nm | absorption maximum (in CCOC(C)=O): 291.5 nm | absorption maximum (in CCOCC): 291.5 nm | absorption maximum (in CN(C)C=O): 293.5 nm | absorption maximum (in CO): 294 nm | absorption maximum (in CS(C)=O): 295 nm | absorption maximum (in Cc1ccccc1): 293 nm

SMILES: CCC1=C(C)C2=C(c3cc(C(=O)Cl)cc(C(=O)Cl)c3)c3c(C)c(CC)c(C)n3[B-](F)(F)[N+]2=C1C
absorption maximum (in C1CCOC1): 528 nm | absorption maximum (in CC#N): 524 nm | absorption maximum (in CN(C)C=O): 529 nm | absorption maximum (in Cc1ccccc1): 531 nm | absorption maximum (in ClC(Cl)Cl): 532 nm

absorption maximum (in ClCCl): 588 nm
SMILES: CCCCCCn1c2cc(C=C(C#N)C#N)sc2c2sc3c(sc4c5sc(C=C(C#N)C#N)cc5n(CCCCCC)c43)c21

absorption maximum (in ClCCl): 370 nm
SMILES: Cc1ccc2c(c1)C(C)(C)c1cc(C)ccc1N2c1ccc2c(c1)C(C)(C)c1cc(N3c4ccc(C)cc4C(C)(C)c4cc(C)ccc43)ccc1S2(=O)=O

absorption maximum (in CCO): 382 nm
SMILES: Cc1c(COC(=O)Cc2c[nH]c3ccccc23)n2c(OCC(=O)Cc3c[nH]c4ccccc34)c(C)c(=O)n2c1=O

SMILES: CCCCCCCCCCOc1ccc(C#Cc2ccc(C#Cc3ccc(OCCCCCCCCCC)c(OCCCCCCCCCC)c3)c3nc4c5ccccc5c5ccccc5c4nc23)cc1OCCCCCCCCCC
absorption maximum (in C1CCOC1): 461 nm | absorption maximum (in Cc1ccccc1): 461 nm | absorption maximum (in ClCCl): 461 nm

SMILES: CCCCN(CCCC)c1ccc(/C=C/c2ccc(-c3ccc(/C=C/c4ccc(N(CCCC)CCCC)cc4)cc3)cc2)cc1
absorption maximum (in CS(C)=O): 412.9 nm | absorption maximum (in Cc1ccccc1): 399.3 nm

absorption maximum (in ClC(Cl)Cl): 797 nm
SMILES: CCCCCCCCCCOc1cc(OCCCCCCCCCC)cc(C2=C3C(/C=C/c4ccc(N(C)C)cc4)=C(C#Cc4ccc(C(C)(C)C)cc4)C(/C=C/c4ccc(N(C)C)cc4)=[N+]3[B-](F)(F)n3c(/C=C/c4ccc(N(C)C)cc4)c(C#Cc4ccc(C(C)(C)C)cc4)c(/C=C/c4ccc(N(C)C)cc4)c32)c1

absorption maximum (in CC1CCCO1): 313 nm
SMILES: c1ccc2c(c1)-c1ccccc1C21c2ccccc2-c2cccnc21

SMILES: COc1ccc(-c2nc3c(c4c2-c2ccc(C#N)cc2CC4)-c2ccc(C#N)cc2CC3)cc1
absorption maximum (in C1CCOC1): 332 nm | absorption maximum (in CC#N): 329 nm | absorption maximum (in CCCCCC): 336 nm | absorption maximum (in CCOC(C)=O): 324 nm | absorption maximum (in CO): 326 nm | absorption maximum (in CS(C)=O): 331 nm | absorption maximum (in Cc1ccccc1): 334 nm | absorption maximum (in ClCCl): 333 nm

SMILES: Nc1nc(/C=C/c2ccc(N(c3ccccc3)c3ccccc3)cc2)cc(/C=C/c2ccc(N(c3ccccc3)c3ccccc3)cc2)n1
absorption maximum (in Cc1ccccc1): 417 nm | absorption maximum (in ClC(Cl)Cl): 432 nm

SMILES: CCc1c(C)[nH]c(C2=[N+]3C(=Cc4c(C)c(CC)c(C)n4[B-]3(F)F)c3ccccc32)c1C
absorption maximum (in C1CCOC1): 629 nm | absorption maximum (in CC#N): 620 nm | absorption maximum (in CCCCCC): 629 nm | absorption maximum (in CO): 623 nm | absorption maximum (in Cc1ccccc1): 636 nm | absorption maximum (in ClCCl): 629 nm

absorption maximum (in CCCCCCC): 381 nm
SMILES: c1ccc2c3c(ccc2c1)-c1cc2ccccc2c2cccc-3c12

absorption maximum (in ClC(Cl)Cl): 740 nm
SMILES: COc1ccc2c(c1)CCC1=C(c3ccccc3)C3=Nc4c(-c5ccccc5)c5c(n4[B-](F)(F)[N+]3=C12)-c1ccc(OC)cc1CC5

absorption maximum (in C1COCCO1): 369 nm
SMILES: N#Cc1ccc(/C=C2\N=C(c3ccccc3)OC2=O)cc1

absorption maximum (in CC#N): 342 nm | absorption maximum (in CCCCOCCCC): 342 nm | absorption maximum (in CO): 340 nm
SMILES: c1ccc(Nc2nc(Nc3ccccc3)nc(Nc3ccc4ccc5cccc6ccc3c4c56)n2)cc1

absorption maximum (in ClCCl): 402 nm
SMILES: CCCCC(CC)COc1ccc2nc(-c3ccc(-c4ccc(N(C)C)cc4)s3)sc2c1 (stereo unspecified)

absorption maximum (in ClCCl): 424 nm
SMILES: COc1ccc2cc(/C=C/c3nc(/C=C/c4ccc(N(c5ccccc5)c5ccccc5)cc4)cc(/C=C/c4ccc(N(c5ccccc5)c5ccccc5)cc4)n3)ccc2c1

absorption maximum (in ClCCl): 385 nm
SMILES: CCOC(=O)c1ccc(C2CC(c3cccc4ccccc34)=NN2c2ccc(C)cc2)cc1 (stereo unspecified)

absorption maximum (in CCO): 605 nm | absorption maximum (in ClC(Cl)Cl): 616 nm | absorption maximum (in ClCCl): 615 nm
SMILES: CCN(CC)c1ccc2cc3c([o+]c2c1)/C(=C/Nc1ccccc1)CCC3

SMILES: COc1ccc(C2=CC(c3ccccc3)=[N+]3C2=Nc2c(-c4ccc(OC)cc4)cc(-c4ccccc4)n2[B-]3(F)F)cc1
absorption maximum (in Cc1ccccc1): 663 nm | absorption maximum (in ClC(Cl)Cl): 664 nm

SMILES: CN(C)CCN(Cc1c2ccccc2cc2ccccc12)c1ccc([N+](=O)[O-])cc1[N+](=O)[O-]
absorption maximum (in C1CCCCC1): 372 nm | absorption maximum (in C1CCOC1): 394 nm | absorption maximum (in CC#N): 392 nm | absorption maximum (in CC(C)=O): 392 nm | absorption maximum (in CCO): 394 nm | absorption maximum (in CN(C)C=O): 395 nm | absorption maximum (in CO): 391 nm | absorption maximum (in CS(C)=O): 397 nm | absorption maximum (in ClC(Cl)Cl): 393 nm | absorption maximum (in ClCCl): 394 nm

absorption maximum (in ClCCl): 341 nm
SMILES: Cc1ccc(-c2ccc(C(=O)NC(C)(C)C)c3c2ccc2c4ccccc4c4ccccc4c23)cc1

SMILES: COC(=O)C(Cc1ccc2oc(-c3ccc(N(C)C)cc3)nc2c1)NC(=O)OC(C)(C)C (stereo unspecified)
absorption maximum (in C1CCCCC1): 335.1 nm | absorption maximum (in C1CCOC1): 341.8 nm | absorption maximum (in C1COCCO1): 340.8 nm | absorption maximum (in CC1CCCO1): 338.9 nm | absorption maximum (in CC1COC(=O)O1): 345.1 nm | absorption maximum (in CC#N): 343.39 nm | absorption maximum (in CC(C)=O): 343.1 nm | absorption maximum (in CC(C)CC(C)(C)C): 333 nm | absorption maximum (in CC(C)CO): 344.49 nm | absorption maximum (in CC(C)O): 343.9 nm | absorption maximum (in CC(C)OC(C)C): 339.5 nm | absorption maximum (in CC(O)CO): 349.5 nm | absorption maximum (in CCC(C)CC): 333 nm | absorption maximum (in CCCCC): 332.9 nm | absorption maximum (in CCCCCC): 333.6 nm | absorption maximum (in CCCCCCCCC): 334.9 nm | absorption maximum (in CCCCCCCCCC): 334.9 nm | absorption maximum (in CCCCCCCO): 345.7 nm | absorption maximum (in CCCCCCO): 345.6 nm | absorption maximum (in CCCCCO): 342.7 nm | absorption maximum (in CCCCO): 345.9 nm | absorption maximum (in CCO): 346.6 nm | absorption maximum (in CCOC(C)=O): 339.7 nm | absorption maximum (in CCOCC): 338.2 nm | absorption maximum (in CN(C)C=O): 346.5 nm | absorption maximum (in CO): 346.5 nm | absorption maximum (in COCCOC): 343.9 nm | absorption maximum (in CS(C)=O): 348.5 nm | absorption maximum (in Cc1ccccc1): 342 nm | absorption maximum (in Cc1ccccc1C): 341.4 nm | absorption maximum (in ClC(Cl)Cl): 344.6 nm | absorption maximum (in ClCCl): 344.49 nm | absorption maximum (in NC=O): 349.41 nm | absorption maximum (in OC1CCCCC1): 346.5 nm | absorption maximum (in OCCO): 351.9 nm | absorption maximum (in c1ccccc1): 342.99 nm

absorption maximum (in CS(C)=O): 786 nm
SMILES: CN(C)c1ccc(C2=[N+]3C(=Nc4c(-c5ccc(OCCCCS(=O)(=O)[O-])cc5)cc(-c5ccc(N(C)C)cc5)n4[B-]3(F)F)C(c3ccc(OCCCCS(=O)(=O)[O-])cc3)=C2)cc1

SMILES: O=C1O[B-]2(OC1=O)OC(c1ccccc1)=CC(c1ccc3ccccc3c1)=[O+]2
absorption maximum (in CC#N): 435 nm | absorption maximum (in ClC(Cl)(Cl)Cl): 435 nm

— the Deep4Chem optical property database
